According to PubChem BioAssay (NCI):
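Exposure lasted 48 hours, with cells grown in 96-well plates and compounds tested at five concentrations. The concentration for 50% growth inhibition is given as GI50. TGI marks complete inhibition of growth.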

What was measured:
Assay in all cases: inhibition of tumour cell growth, NCI panel, 48 h
[1] = test system: T-47D breast
[2] = test system: OVCAR-8 ovarian
[3] = test system: MOLT-4 leukemia
[4] = test system: RPMI-8226 leukemia
[5] = test system: MALME-3M melanoma
[6] = test system: NCI-H522 lung
[7] = test system: 786-0 renal
[8] = test system: RXF 393 renal
[9] = test system: HCT-15 colon
[10] = test system: K-562 leukemia
[11] = test system: HCT-116 colon
[12] = test system: SF-539 CNS
[13] = test system: SF-295 CNS
[14] = test system: ACHN renal
[15] = test system: MDA-MB-435
[16] = test system: SF-268 CNS
[17] = test system: NCI-H23 lung
[18] = test system: MDA-MB-468 breast
[19] = test system: CAKI-1 renal
[20] = test system: IGROV1 ovarian
[21] = test system: SNB-19 CNS
[22] = test system: NCI-H226 lung
[23] = test system: NCI-H460 lung
[24] = test system: HOP-92 NSCLC
[25] = test system: HL-60(TB) leukemia
[26] = test system: SN12C renal
[27] = test system: SK-OV-3 ovarian
[28] = test system: HT29 colon
[29] = test system: A549 NSCLC
[30] = test system: NCI/ADR-RES ovarian
[31] = test system: A498 renal
[32] = test system: OVCAR-4 ovarian
[33] = test system: PC-3 prostate
[34] = test system: COLO 205 colon
[35] = test system: M14 melanoma
[36] = test system: SK-MEL-28 melanoma
[37] = test system: SK-MEL-5 melanoma
[38] = test system: EKVX NSCLC
[39] = test system: DU-145 prostate
[40] = test system: OVCAR-3 ovarian
[41] = test system: HS 578T breast
[42] = test system: TK-10 renal
[43] = test system: HCC-2998 colon
[44] = test system: KM12 colon
[45] = test system: LOX IMVI melanoma
[46] = test system: SR leukemia
[47] = test system: UACC-62 melanoma
[48] = test system: OVCAR-5 ovarian
[49] = test system: HOP-62 NSCLC
[50] = test system: CCRF-CEM leukemia
[51] = test system: SW-620 colon
[52] = test system: U251 CNS
[53] = test system: BT-549 breast
[54] = test system: MCF7 breast

CC(C)C[C@H](NC(=O)CNC(=O)C[C@H]1O[C@@H]2OC3(C)CC[C@H]4[C@H](C)CC[C@@H]([C@H]1C)[C@@]24O3)B(O)O
GI50 [1]: 2.19 µM | TGI [1]: 5.88 µM | GI50 [2]: 3.58 µM | TGI [2]: 17.6 µM | GI50 [3]: 0.332 µM | TGI [3]: 1.92 µM | GI50 [4]: 0.272 µM | TGI [4]: 1.38 µM | GI50 [5]: 1.22 µM | TGI [5]: 4.4 µM | GI50 [6]: 1.63 µM | TGI [6]: 3.3 µM | GI50 [7]: 4.22 µM | TGI [7]: 53.6 µM | GI50 [8]: 0.738 µM | TGI [8]: 2.18 µM | GI50 [9]: 6.42 µM | TGI [9]: 24.1 µM | GI50 [10]: 3.69 µM | TGI [10]: > 100 µM | GI50 [11]: 1.46 µM | TGI [11]: 3.7 µM | GI50 [12]: 1.32 µM | TGI [12]: 3.08 µM | GI50 [13]: 2.45 µM | TGI [13]: 11.3 µM | GI50 [14]: 3.99 µM | TGI [14]: > 100 µM | GI50 [15]: 1.38 µM | TGI [15]: 3.93 µM | GI50 [16]: 3.51 µM | TGI [16]: 97.5 µM | GI50 [17]: 3.1 µM | TGI [17]: 11.8 µM | GI50 [18]: 1.43 µM | TGI [18]: 3.57 µM | GI50 [19]: 16.8 µM | TGI [19]: > 100 µM | GI50 [20]: 6.94 µM | TGI [20]: 34.4 µM | GI50 [21]: 5.83 µM | TGI [21]: > 100 µM | GI50 [22]: 0.645 µM | TGI [22]: 2.14 µM | GI50 [23]: 4.72 µM | TGI [23]: 23 µM | GI50 [24]: 3.12 µM | TGI [24]: 9.51 µM | GI50 [25]: 0.514 µM | TGI [25]: 4.15 µM | GI50 [26]: 2.98 µM | TGI [26]: 12 µM | GI50 [27]: 6.45 µM | TGI [27]: 35.2 µM | GI50 [28]: 1.67 µM | TGI [28]: 4.63 µM | GI50 [29]: 3.93 µM | TGI [29]: > 100 µM | GI50 [30]: 40.6 µM | TGI [30]: > 100 µM | GI50 [31]: 6.87 µM | TGI [31]: 49 µM | GI50 [32]: 5.64 µM | TGI [32]: > 100 µM | GI50 [33]: 5.47 µM | TGI [33]: 67 µM | GI50 [34]: 4.79 µM | TGI [34]: 22.2 µM | GI50 [35]: 1.91 µM | TGI [35]: 4.82 µM | GI50 [36]: 1.45 µM | TGI [36]: 7.28 µM | GI50 [37]: 1.79 µM | TGI [37]: 3.67 µM | GI50 [38]: 7.94 µM | TGI [38]: 79.6 µM | GI50 [39]: 13.5 µM | TGI [39]: > 100 µM | GI50 [40]: 1.78 µM | TGI [40]: 4.27 µM | GI50 [41]: 3.5 µM | TGI [41]: 70.6 µM | GI50 [42]: 3.01 µM | TGI [42]: 20.1 µM | GI50 [43]: 1.92 µM | TGI [43]: 3.46 µM | GI50 [44]: 2.71 µM | TGI [44]: 7.32 µM | GI50 [45]: 1.44 µM | TGI [45]: 3.14 µM | GI50 [46]: 0.303 µM | TGI [46]: 1.5 µM | GI50 [47]: 1.92 µM | TGI [47]: 4.61 µM | GI50 [48]: 2.53 µM | TGI [48]: 13.8 µM | GI50 [49]: 3.89 µM | TGI [49]: 18.4 µM | GI50 [50]: 0.502 µM | TGI [50]: 3.88 µM | GI50 [51]: 2.78 µM | TGI [51]: 17.8 µM | GI50 [52]: 3.61 µM | TGI [52]: 17.6 µM | GI50 [53]: 0.537 µM | TGI [53]: 2.45 µM | GI50 [54]: 1.36 µM | TGI [54]: 41 µM
